Measurements from US6737383B1, “Herbicidal oxadiazolidines” (priority 1999, dated 2004).

What was measured:
[1] = tested on: bedstraw; assay: Test B pre/postemergence bedstraw; format: in vivo, Galium aparine
In short: (§1)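 Test chemicals in a non-phytotoxic solvent mixture with surfactant were sprayed preemergence onto planted seeds and postemergence onto plants 2 to 18 cm tall (1- to 4-leaf stage). After twelve to sixteen days in a greenhouse, injury was visually rated against untreated controls from 0 (no effect) to 10 (complete control).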

[2] = tested on: surinam grass; assay: Test B pre/postemergence surinam grass; format: in vivo, Brachiaria decumbens
In short: as §1

[3] = tested on: cocklebur; assay: Test B pre/postemergence cocklebur; format: in vivo, Xanthium strumarium; conditions: for Cocklebur plant response rating: scale of 0 to 10 where 0 is no effect and 10 is complete control
In short: as §1

[4] = tested on: corn; assay: Test B pre/postemergence corn; format: in vivo, Zea mays; conditions: for Corn plant response rating: scale of 0 to 10 where 0 is no effect and 10 is complete control
In short: as §1

[5] = tested on: giant foxtail; assay: Test B pre/postemergence giant foxtail; format: in vivo, Setaria faberii; conditions: for Giant foxtail plant response rating: scale of 0 to 10 where 0 is no effect and 10 is complete control
In short: as §1

[6] = tested on: pigweed; assay: Test B pre/postemergence pigweed; format: in vivo, Amaranthus retroflexus; conditions: for Redroot pigweed plant response rating: scale of 0 to 10 where 0 is no effect and 10 is complete control
In short: as §1

[7] = tested on: rape; assay: Test B pre/postemergence rape; format: in vivo, Brassica napus; conditions: for Rape plant response rating: scale of 0 to 10 where 0 is no effect and 10 is complete control
In short: as §1

[8] = tested on: soybean; assay: Test B pre/postemergence soybean; format: in vivo, Glycine max; conditions: for Soybean plant response rating: scale of 0 to 10 where 0 is no effect and 10 is complete control
In short: as §1

[9] = tested on: sugar beet; assay: Test B pre/postemergence sugar beet; format: in vivo, Beta vulgaris; conditions: for Sugarbeets plant response rating: scale of 0 to 10 where 0 is no effect and 10 is complete control
In short: as §1

[10] = tested on: velvetleaf; assay: Test B pre/postemergence velvetleaf; format: in vivo, Abutilon theophrasti; conditions: for Velvetleaf plant response rating: scale of 0 to 10 where 0 is no effect and 10 is complete control
In short: as §1

[11] = tested on: wheat; assay: Test B pre/postemergence wheat; format: in vivo, Triticum aestivum; conditions: for Wheat plant response rating: scale of 0 to 10 where 0 is no effect and 10 is complete control
In short: as §1

[12] = tested on: wild oat; assay: Test B pre/postemergence wild oat; format: in vivo, Avena fatua; conditions: for Wild oats plant response rating: scale of 0 to 10 where 0 is no effect and 10 is complete control
In short: as §1

[13] = tested on: purple nutsedge; assay: Test B pre/postemergence purple nutsedge; format: in vivo, Cyperus rotundus; conditions: for Nutsedge plant response rating: scale of 0 to 10 where 0 is no effect and 10 is complete control
In short: as §1

[14] = tested on: rice; assay: Test B flood test rice; format: in vivo, Oryza sativa
In short: (§2)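 Flood test on plants grown to the 2-leaf stage; treated plants kept in greenhouse twelve to sixteen days, then visually rated against controls on a 0 (no effect) to 10 (complete control) scale.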

[15] = tested on: smallflower flatsedge; assay: Test B flood test smallflower flatsedge; format: in vivo, Cyperus difformis
In short: as §2

[16] = tested on: duck salad; assay: Test B flood test duck salad; format: in vivo, Heteranthera limosa
In short: as §2

[17] = Postemergence, Rate 125 g/ha, scale 0 to 10, 0 is no effect, 10 is complete control
[18] = Preemergence, Rate 62 g/ha, scale 0 to 10 (0 no effect, 10 complete control)
[19] = Rate 62 g/ha, Postemergence, scale of 0 to 10 where 0 is no effect and 10 is complete control
[20] = Rate 250 g/ha, Postemergence, scale of 0 to 10 where 0 is no effect and 10 is complete control
[21] = Rate 500 g/ha, Postemergence, scale 0 to 10, 0 no effect, 10 complete control
[22] = Postemergence (flood test), Rate 125 g/ha, scale 0 to 10, 0 is no effect, 10 is complete control
[23] = Rate 62 g/ha, Postemergence (flood test species), scale of 0 to 10 where 0 is no effect and 10 is complete control
[24] = Rate 500 g/ha, listed under Postemergence (flood test species), scale 0 to 10, 0 no effect, 10 complete control

Compound: COCC(C)n1c(=O)on(C(=O)N(c2ccc(F)cc2F)C(C)C)c1=O (stereo not drawn) [Compound 352]
- Plant response rating, Bedstraw [1, 17]: 0
- Plant response rating, Bedstraw [1, 18]: 0
- Bedstraw plant response rating (0 to 10 scale) ([1]; Preemergence, Rate 125 g/ha): 0
- Bedstraw plant response rating [1, 19]: 0
- Plant response rating, Bedstraw [1, 20]: 2
- Plant response rating, Bedstraw [1, 21]: 4
- Plant response rating, B. signalgrass [2, 17]: 2
- Plant response rating, B. signalgrass [2, 18]: 2
- B. signalgrass plant response rating (0 to 10 scale, 0 is no effect, 10 is complete control) ([2]; Preemergence, Rate 125 g/ha): 6
- B. signalgrass plant response rating ([2]; Preemergence, Rate 250 g/ha, scale of 0 to 10 where 0 is no effect and 10 is complete control): 7
- B. signalgrass plant response rating ([2]; Preemergence, Rate 500 g/ha, scale of 0 to 10 where 0 is no effect and 10 is complete control): 7
- B. signalgrass plant response rating [2, 19]: 0
- Plant response rating, B. signalgrass [2, 20]: 7
- Plant response rating, B. signalgrass [2, 21]: 7
- Plant response rating, Cocklebur [3, 17]: 0
- Plant response rating, Cocklebur [3, 18]: 0
- Cocklebur plant response rating (0 to 10 scale) ([3]; Preemergence, Rate 125 g/ha): 0
- Cocklebur plant response rating ([3]; Preemergence, Rate 250 g/ha): 0
- Cocklebur plant response rating ([3]; Preemergence, Rate 500 g/ha): 0
- Cocklebur plant response rating ([3]; Rate 62 g/ha, Postemergence): 0
- Plant response rating, Cocklebur [3, 21]: 0
- Plant response rating, Corn [4, 17]: 0
- Plant response rating, Corn [4, 18]: 0
- Corn plant response rating (0 to 10 scale) ([4]; Preemergence, Rate 125 g/ha): 5
- Corn plant response rating ([4]; Preemergence, Rate 250 g/ha): 6
- Corn plant response rating ([4]; Preemergence, Rate 500 g/ha): 9
- Corn plant response rating ([4]; Rate 62 g/ha, Postemergence): 0
- Plant response rating, Corn [4, 21]: 6
- Plant response rating, Giant foxtail [5, 17]: 2
- Plant response rating, Giant foxtail [5, 18]: 10
- Giant foxtail plant response rating (0 to 10 scale) ([5]; Preemergence, Rate 125 g/ha): 10
- Giant foxtail plant response rating ([5]; Preemergence, Rate 250 g/ha): 10
- Giant foxtail plant response rating ([5]; Preemergence, Rate 500 g/ha): 10
- Giant foxtail plant response rating ([5]; Rate 62 g/ha, Postemergence): 2
- Plant response rating, Giant foxtail [5, 21]: 9
- Plant response rating, Redroot pigweed [6, 17]: 3
- Redroot pigweed plant response rating (0 to 10 scale) ([6]; Preemergence, Rate 125 g/ha): 3
- Redroot pigweed plant response rating ([6]; Preemergence, Rate 250 g/ha): 10
- Redroot pigweed plant response rating ([6]; Preemergence, Rate 500 g/ha): 10
- Redroot pigweed plant response rating ([6]; Rate 62 g/ha, Postemergence): 0
- Plant response rating, Redroot pigweed [6, 21]: 4
- Plant response rating, Rape [7, 17]: 0
- Plant response rating, Rape [7, 18]: 0
- Rape plant response rating (0 to 10 scale) ([7]; Preemergence, Rate 125 g/ha): 0
- Rape plant response rating ([7]; Preemergence, Rate 250 g/ha): 0
- Rape plant response rating ([7]; Preemergence, Rate 500 g/ha): 7
- Rape plant response rating ([7]; Rate 62 g/ha, Postemergence): 0
- Plant response rating, Rape [7, 21]: 0
- Plant response rating, Soybean [8, 17]: 2
- Plant response rating, Soybean [8, 18]: 0
- Soybean plant response rating (0 to 10 scale) ([8]; Preemergence, Rate 125 g/ha): 0
- Soybean plant response rating ([8]; Preemergence, Rate 250 g/ha): 0
- Soybean plant response rating ([8]; Preemergence, Rate 500 g/ha): 2
- Soybean plant response rating ([8]; Rate 62 g/ha, Postemergence): 2
- Plant response rating, Soybean [8, 21]: 4
- Plant response rating, Sugarbeets [9, 17]: 0
- Plant response rating, Sugarbeets [9, 18]: 2
- Sugarbeets plant response rating (0 to 10 scale) ([9]; Preemergence, Rate 125 g/ha): 3
- Sugarbeets plant response rating ([9]; Preemergence, Rate 250 g/ha): 3
- Sugarbeets plant response rating ([9]; Preemergence, Rate 500 g/ha): 7
- Sugarbeets plant response rating ([9]; Rate 62 g/ha, Postemergence): 0
- Plant response rating, Sugarbeets [9, 21]: 0
- Plant response rating, Velvetleaf [10, 17]: 0
- Plant response rating, Velvetleaf [10, 18]: 2
- Velvetleaf plant response rating (0 to 10 scale) ([10]; Preemergence, Rate 125 g/ha): 4
- Velvetleaf plant response rating ([10]; Preemergence, Rate 250 g/ha): 6
- Velvetleaf plant response rating ([10]; Preemergence, Rate 500 g/ha): 7
- Velvetleaf plant response rating ([10]; Rate 62 g/ha, Postemergence): 0
- Plant response rating, Velvetleaf [10, 21]: 3
- Plant response rating, Wheat [11, 17]: 3
- Plant response rating, Wheat [11, 18]: 0
- Wheat plant response rating (0 to 10 scale) ([11]; Preemergence, Rate 125 g/ha): 0
- Wheat plant response rating ([11]; Preemergence, Rate 250 g/ha): 2
- Wheat plant response rating ([11]; Preemergence, Rate 500 g/ha): 6
- Wheat plant response rating ([11]; Rate 62 g/ha, Postemergence): 0
- Plant response rating, Wheat [11, 21]: 7
- Plant response rating, Wild oats [12, 17]: 0
- Plant response rating, Wild oats [12, 18]: 8
- Wild oats plant response rating (0 to 10 scale) ([12]; Preemergence, Rate 125 g/ha): 8
- Wild oats plant response rating ([12]; Preemergence, Rate 250 g/ha): 9
- Wild oats plant response rating ([12]; Preemergence, Rate 500 g/ha): 10
- Wild oats plant response rating ([12]; Rate 62 g/ha, Postemergence): 0
- Plant response rating, Wild oats [12, 21]: 7
- Plant response rating, Nutsedge [13, 17]: 0
- Plant response rating, Nutsedge [13, 18]: 0
- Nutsedge plant response rating (0 to 10 scale) ([13]; Preemergence, Rate 125 g/ha): 0
- Nutsedge plant response rating ([13]; Preemergence, Rate 250 g/ha): 0
- Nutsedge plant response rating ([13]; Preemergence, Rate 500 g/ha): 0
- Nutsedge plant response rating ([13]; Rate 62 g/ha, Postemergence): 0
- Plant response rating, Nutsedge [13, 21]: 2
- Plant response rating, Rice [14, 22]: 3
- Rice plant response rating [14, 23]: 0
- Plant response rating, Rice [14, 24]: 3
- Plant response rating, S. Flatsedge [15, 22]: 7
- S. Flatsedge plant response rating [15, 23]: 2
- Plant response rating, S. Flatsedge [15, 24]: 7
- Plant response rating, Ducksalad [16, 22]: 0
- Ducksalad plant response rating [16, 23]: 0
- Plant response rating, Ducksalad [16, 24]: 2
